From patent publication US10392368B2, “Pyrazolo and triazolo bicyclic compounds as JAK kinase inhibitors” (THERAVANCE BIOPHARMA R&D IP, LLC, priority 2017, dated 2019)
Where two headings read alike, the source gives them in different places.

Legend:
JAK1 = biological target: T1, JAK1 (Homo sapiens, UniProt P23458); experiment: Biochemical JAK1 kinase assay (LanthaScreen); settings: for Ki: read-out: JAK 1 (pKi) (converted)
T1 construct: GST; purchased Life Technologies
Summary of the method: (§1)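 GST-tagged JAK enzyme and GFP-STAT1 peptide preincubated with compound 1 h, then ATP added; 1 h kinase reaction at ambient temperature, pH 7.5 HEPES/MgCl2 buffer, 1% DMSO. Tb-anti-pSTAT1 (pTyr701) TR-FRET, 520/495 nm ratio; IC50 from 4-parameter fit, converted to pKi via Cheng-Prusoff.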

JAK3 = biological target: T2, JAK3 (Homo sapiens, UniProt P52333); experiment: Biochemical JAK3 kinase assay (LanthaScreen); parameters: GST; purchased Life Technologies; settings: for Ki: read-out: JAK 3 (pKi) (converted)
T2 sequence (P52333 1-1124): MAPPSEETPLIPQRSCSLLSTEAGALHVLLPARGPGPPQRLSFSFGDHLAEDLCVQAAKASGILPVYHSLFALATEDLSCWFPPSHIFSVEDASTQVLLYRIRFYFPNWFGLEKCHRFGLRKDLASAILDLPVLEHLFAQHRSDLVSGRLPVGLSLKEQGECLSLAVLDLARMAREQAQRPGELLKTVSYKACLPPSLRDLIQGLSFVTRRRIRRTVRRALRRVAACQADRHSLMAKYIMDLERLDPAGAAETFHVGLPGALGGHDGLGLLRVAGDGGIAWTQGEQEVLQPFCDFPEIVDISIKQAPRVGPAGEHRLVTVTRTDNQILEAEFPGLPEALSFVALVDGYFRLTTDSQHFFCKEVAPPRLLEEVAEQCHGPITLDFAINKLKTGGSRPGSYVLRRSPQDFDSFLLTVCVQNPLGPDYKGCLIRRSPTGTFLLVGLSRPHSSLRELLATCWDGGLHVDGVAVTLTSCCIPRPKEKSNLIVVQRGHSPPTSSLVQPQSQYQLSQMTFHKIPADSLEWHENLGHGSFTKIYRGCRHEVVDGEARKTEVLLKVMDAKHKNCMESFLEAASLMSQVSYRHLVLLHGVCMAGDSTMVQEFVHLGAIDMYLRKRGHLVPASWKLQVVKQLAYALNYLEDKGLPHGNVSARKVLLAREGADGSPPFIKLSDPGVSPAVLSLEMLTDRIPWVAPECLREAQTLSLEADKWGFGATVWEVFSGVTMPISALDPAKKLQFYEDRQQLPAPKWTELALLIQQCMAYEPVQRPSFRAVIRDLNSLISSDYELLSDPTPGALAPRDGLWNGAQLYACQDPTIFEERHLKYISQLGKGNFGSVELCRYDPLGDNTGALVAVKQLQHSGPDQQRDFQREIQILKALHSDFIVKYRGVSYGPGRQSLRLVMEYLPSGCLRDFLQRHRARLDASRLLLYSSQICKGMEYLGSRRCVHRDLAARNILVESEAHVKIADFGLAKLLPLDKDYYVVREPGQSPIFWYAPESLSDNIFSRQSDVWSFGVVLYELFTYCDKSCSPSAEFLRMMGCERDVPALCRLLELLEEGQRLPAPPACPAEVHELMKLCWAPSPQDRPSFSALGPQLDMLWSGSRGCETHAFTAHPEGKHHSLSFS
Summary of the method: as §1

Tyk2 = biological target: T3, Tyk2 (Homo sapiens, UniProt P29597); experiment: Biochemical Tyk2 kinase assay (LanthaScreen); settings: for Ki: read-out: Tyk 2 (pKi) (converted)
T3 construct: GST; purchased Life Technologies
Summary of the method: as §1

[1] = system: IL-2 stimulated pSTAT5 in Tall-1 T cells; experiment: Cellular JAK3 potency assay: inhibition of IL-2 stimulated pSTAT5 in Tall-1 T cells; type: cell-based, human; settings: for IC50: Homo sapiens, read-out: Tall-1 (pIC50) (converted)
Summary of the method: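 Tall-1 human T cells were preincubated with compound for 1 h at 37° C, then stimulated with IL-2 (300 ng/ml final) for 30 min. STAT5 phosphorylation in lysates was read by AlphaLisa bead emission, and IC50 from inhibition curves is given as pIC50 (mean±SD).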

JAK2 = biological target: T4, JAK2 (Homo sapiens, UniProt O60674); experiment: Biochemical JAK2 kinase assay (LanthaScreen); settings: for Ki: read-out: JAK 2 (pKi) (converted)
T4 construct: GST; purchased Life Technologies
Summary of the method: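 pKi values derive from pIC50 via Cheng-Prusoff, with IC50 from a 4-parameter fit of percent-inhibition TR-FRET data using Tb-anti-pSTAT1 (pTyr701) detection. Compound, GST-JAK2 and GFP-STAT1 substrate were pre-incubated 1 h, then ATP started a 1 h ambient reaction (HEPES pH 7.5, 10 mM MgCl2, 1% DMSO).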

[2] = selectivity: difference of pKi JAK3 and pKi JAK1
[3] = IL-2 stimulated pSTAT5 in Tall-1 T cells
[4] = TALL-1, IL-2 stimulated pSTAT5 in Tall-1 T cells
[5] = selectivity JAK3 over JAK1, difference of pKi
[6] = IL-2 stimulated pSTAT5, Tall-1 T cells
[7] = TALL-1, IL-2 stimulated pSTAT5, Tall-1 T cells

T3 sequence (P29597 whole entry): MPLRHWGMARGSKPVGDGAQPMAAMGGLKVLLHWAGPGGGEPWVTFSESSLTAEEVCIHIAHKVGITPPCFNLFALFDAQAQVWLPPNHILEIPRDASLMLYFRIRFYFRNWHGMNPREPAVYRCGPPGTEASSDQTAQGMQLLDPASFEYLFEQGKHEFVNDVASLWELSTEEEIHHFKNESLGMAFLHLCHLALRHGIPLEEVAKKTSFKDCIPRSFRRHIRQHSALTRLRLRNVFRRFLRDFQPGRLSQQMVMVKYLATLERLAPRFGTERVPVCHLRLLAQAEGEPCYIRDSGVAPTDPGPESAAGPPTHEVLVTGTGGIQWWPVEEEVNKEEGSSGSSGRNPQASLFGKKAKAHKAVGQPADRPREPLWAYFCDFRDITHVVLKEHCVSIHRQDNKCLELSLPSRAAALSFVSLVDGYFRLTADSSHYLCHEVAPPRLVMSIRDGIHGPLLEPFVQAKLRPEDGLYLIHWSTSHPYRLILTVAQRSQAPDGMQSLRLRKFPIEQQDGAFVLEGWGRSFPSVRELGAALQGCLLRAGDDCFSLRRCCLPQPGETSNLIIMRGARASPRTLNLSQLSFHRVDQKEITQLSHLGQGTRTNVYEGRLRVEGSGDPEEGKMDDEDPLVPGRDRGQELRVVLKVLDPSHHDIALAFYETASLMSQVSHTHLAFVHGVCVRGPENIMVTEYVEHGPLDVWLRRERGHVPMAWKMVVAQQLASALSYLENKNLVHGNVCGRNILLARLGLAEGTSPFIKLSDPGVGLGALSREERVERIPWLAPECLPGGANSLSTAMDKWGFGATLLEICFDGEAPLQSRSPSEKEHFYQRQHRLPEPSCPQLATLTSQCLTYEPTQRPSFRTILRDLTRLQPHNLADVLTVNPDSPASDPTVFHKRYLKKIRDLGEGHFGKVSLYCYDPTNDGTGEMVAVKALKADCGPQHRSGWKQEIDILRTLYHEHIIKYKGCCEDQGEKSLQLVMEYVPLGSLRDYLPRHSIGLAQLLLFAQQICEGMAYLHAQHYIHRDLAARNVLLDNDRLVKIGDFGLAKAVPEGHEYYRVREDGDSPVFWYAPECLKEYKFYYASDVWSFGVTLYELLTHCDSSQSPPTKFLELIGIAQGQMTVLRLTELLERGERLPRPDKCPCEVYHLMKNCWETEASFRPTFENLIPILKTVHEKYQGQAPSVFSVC
T4 sequence (O60674 whole entry): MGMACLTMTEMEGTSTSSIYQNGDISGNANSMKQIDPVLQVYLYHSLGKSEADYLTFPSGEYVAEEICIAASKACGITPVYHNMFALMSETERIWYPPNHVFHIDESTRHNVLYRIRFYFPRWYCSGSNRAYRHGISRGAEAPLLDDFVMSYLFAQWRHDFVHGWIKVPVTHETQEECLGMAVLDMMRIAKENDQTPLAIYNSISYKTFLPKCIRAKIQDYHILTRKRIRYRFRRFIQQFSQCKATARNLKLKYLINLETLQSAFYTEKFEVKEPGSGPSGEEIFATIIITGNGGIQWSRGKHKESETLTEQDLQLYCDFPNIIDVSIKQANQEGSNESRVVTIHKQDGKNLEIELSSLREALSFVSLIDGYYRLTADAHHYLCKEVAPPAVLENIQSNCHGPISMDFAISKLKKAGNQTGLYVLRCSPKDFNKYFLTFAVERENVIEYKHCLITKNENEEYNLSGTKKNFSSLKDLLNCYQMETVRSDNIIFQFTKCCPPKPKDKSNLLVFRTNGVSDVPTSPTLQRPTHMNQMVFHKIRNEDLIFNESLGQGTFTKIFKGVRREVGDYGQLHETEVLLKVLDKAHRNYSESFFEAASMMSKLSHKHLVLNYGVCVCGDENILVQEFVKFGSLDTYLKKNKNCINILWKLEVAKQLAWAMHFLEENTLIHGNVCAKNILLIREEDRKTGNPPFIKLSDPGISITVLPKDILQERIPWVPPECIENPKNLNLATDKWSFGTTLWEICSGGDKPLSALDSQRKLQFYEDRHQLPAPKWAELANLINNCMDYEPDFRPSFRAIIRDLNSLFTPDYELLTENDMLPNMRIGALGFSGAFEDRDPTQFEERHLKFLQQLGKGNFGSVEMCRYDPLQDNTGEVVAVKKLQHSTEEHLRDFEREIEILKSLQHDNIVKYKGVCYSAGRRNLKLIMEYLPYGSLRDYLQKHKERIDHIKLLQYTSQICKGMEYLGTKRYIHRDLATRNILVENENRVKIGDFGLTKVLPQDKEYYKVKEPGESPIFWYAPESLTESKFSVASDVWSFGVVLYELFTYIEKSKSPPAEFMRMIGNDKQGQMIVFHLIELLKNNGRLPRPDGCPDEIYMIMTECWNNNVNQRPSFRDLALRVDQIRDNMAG
T1 sequence (P23458 whole entry): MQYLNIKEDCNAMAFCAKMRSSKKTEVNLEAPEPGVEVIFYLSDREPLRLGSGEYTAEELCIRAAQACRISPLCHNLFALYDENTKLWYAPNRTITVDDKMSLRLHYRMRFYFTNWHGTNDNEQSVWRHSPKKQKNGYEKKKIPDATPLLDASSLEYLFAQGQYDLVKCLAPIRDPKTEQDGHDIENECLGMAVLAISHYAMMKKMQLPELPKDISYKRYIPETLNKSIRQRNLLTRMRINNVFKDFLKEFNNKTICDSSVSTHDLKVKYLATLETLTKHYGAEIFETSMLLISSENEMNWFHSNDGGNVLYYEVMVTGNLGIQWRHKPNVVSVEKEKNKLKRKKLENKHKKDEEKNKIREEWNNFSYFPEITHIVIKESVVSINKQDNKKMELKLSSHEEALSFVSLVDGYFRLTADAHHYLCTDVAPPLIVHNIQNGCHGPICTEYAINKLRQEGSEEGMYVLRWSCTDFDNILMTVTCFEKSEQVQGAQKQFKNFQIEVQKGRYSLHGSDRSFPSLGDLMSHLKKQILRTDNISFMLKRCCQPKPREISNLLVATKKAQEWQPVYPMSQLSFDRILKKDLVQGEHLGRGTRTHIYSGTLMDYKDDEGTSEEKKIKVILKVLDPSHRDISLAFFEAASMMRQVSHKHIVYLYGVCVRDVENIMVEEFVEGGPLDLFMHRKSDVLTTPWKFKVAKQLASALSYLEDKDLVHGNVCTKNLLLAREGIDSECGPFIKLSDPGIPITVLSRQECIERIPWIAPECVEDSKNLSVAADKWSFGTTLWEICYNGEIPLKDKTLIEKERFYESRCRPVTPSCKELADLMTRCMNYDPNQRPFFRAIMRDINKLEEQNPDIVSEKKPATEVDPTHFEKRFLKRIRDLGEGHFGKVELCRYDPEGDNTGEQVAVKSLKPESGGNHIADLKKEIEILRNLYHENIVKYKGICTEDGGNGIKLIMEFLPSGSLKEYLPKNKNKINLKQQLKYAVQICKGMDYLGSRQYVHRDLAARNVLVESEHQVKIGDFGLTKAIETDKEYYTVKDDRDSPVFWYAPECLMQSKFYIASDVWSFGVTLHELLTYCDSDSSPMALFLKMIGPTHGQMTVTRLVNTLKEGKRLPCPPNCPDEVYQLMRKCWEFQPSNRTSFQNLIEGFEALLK

SMILES | JAK 1 (pKi) (JAK1) | JAK 3 (pKi) (JAK3) | JAK3 (pKi)-JAK1 (pKi) (JAK3; [2]) | Tyk 2 (pKi) (Tyk2) | Tall-1 (pIC50) [1, 3] | JAK 2 (pKi) (JAK2) | Ki (JAK1) [µM] | Ki (JAK3) [µM] | Ki (Tyk2) [µM] | IC50 [1, 4] [µM] | Ki (JAK2) [µM] | JAK3 (pKi)-JAK1 (pKi) (JAK3; [5]) | Tall-1 (pIC50) [1, 6] | IC50 [1, 7] [µM]
C=C(CN(C)C)C(=O)N1CC(COc2nc(-c3ccc(O)c(Cl)c3)nc3[nH]ncc23)C1 [Compound 3-60] | E (a pKi value of 7 or below (Ki of 100 nM or above)) | A (a pKi value≥10 (Ki≤0.1 nM)) | A (a value of 3 or above) | E (a pKi value of 7 or below (Ki of 100 nM or above)) | B (a pIC50 value between 6.7 (included) and 7.5 (IC50 between 200 nM and 32 nM)) | E (a pKi value of 7 or below (Ki of 100 nM or above)) | – | – | – | – | – | – | – | –
C=CC(=O)N1CC[C@H](Oc2cc(-c3ccc(O)cc3)cc3[nH]nc(NC)c23)C1 [Compound 1-21] | – | – | A (a value of 3 or above) | – | – | – | > 0.1 | 0.0001 to 0.001 | > 0.1 | 0.0316 to 0.2 | > 0.1 | – | – | –
CN(C)C/C=C/C(=O)N1CC(CSc2cc(-c3ccc(O)c(Cl)c3)cc3[nH]ncc23)C1 [Compound 13-6] | E (a pKi value of 7 or below (Ki of 100 nM or above)) | A (a pKi value≥10 (Ki≤0.1 nM)) | – | E (a pKi value of 7 or below (Ki of 100 nM or above)) | – | E (a pKi value of 7 or below (Ki of 100 nM or above)) | – | – | – | – | – | A (a value of 3 or above) | A (a pIC50 value≥7.5 (IC50≤32 nM)) | –
C=CC(=O)N1CC[C@H](Oc2cc(-c3ccc(O)c(F)c3)cc3[nH]nc(SC)c23)C1 [Compound 1-40] | – | – | B (a value of 2.3 to 3) | – | – | – | > 0.1 | 0.0001 to 0.001 | > 0.1 | 0.0316 to 0.2 | > 0.1 | – | – | –
C=CC(=O)N1CC(C#N)(COc2nc(-c3ccc(O)cc3)nc3[nH]ncc23)C1 [Compound 3-104] | – | – | A (a value of 3 or above) | – | – | – | > 0.1 | < 0.0001 | > 0.1 | < 0.0316 | > 0.1 | – | – | –
C=CC(=O)N1CC(COc2nc(-c3ccc(O)cc3)nc3[nH]ncc23)C1C (stereo not drawn) [Compound 3-31] | E (a pKi value of 7 or below (Ki of 100 nM or above)) | A (a pKi value≥10 (Ki≤0.1 nM)) | A (a value of 3 or above) | E (a pKi value of 7 or below (Ki of 100 nM or above)) | B (a pIC50 value between 6.7 (included) and 7.5 (IC50 between 200 nM and 32 nM)) | E (a pKi value of 7 or below (Ki of 100 nM or above)) | – | – | – | – | – | – | – | –
C=CC(=O)N1CCC(F)(C(=O)Nc2cc(-c3ccc(O)cc3)cc3[nH]ncc23)CC1 [Compound 12-58] | – | – | – | – | – | – | > 0.1 | < 0.0001 | > 0.1 | – | 0.01 to 0.1 | A (a value of 3 or above) | – | 0.0316 to 0.2
C=CC(=O)N1CC(COc2cc(-c3ccc(O)c(C)c3)cc3[nH]ncc23)C1 [Compound 18-9] | – | – | – | – | – | – | > 0.1 | < 0.0001 | > 0.1 | – | > 0.1 | A (a value of 3 or above) | – | < 0.0316
C=C(CN(C)C)C(=O)N1CC(COc2nc(-c3ccc(O)cc3)nc3[nH]ncc23)C1 [Compound 3-112] | – | – | A (a value of 3 or above) | – | – | – | > 0.1 | 0.0001 to 0.001 | > 0.1 | 0.0316 to 0.2 | > 0.1 | – | – | –
C=CC(=O)N1CCC(COc2nc(-c3ccc(O)cc3)nc3[nH]ncc23)CC1 [Compound 14-12] | E (a pKi value of 7 or below (Ki of 100 nM or above)) | B (a pKi value between 9 and 10 (Ki between 1 nM and 0.1 nM)) | – | E (a pKi value of 7 or below (Ki of 100 nM or above)) | – | E (a pKi value of 7 or below (Ki of 100 nM or above)) | – | – | – | – | – | A (a value of 3 or above) | C (a pIC50 value between 6 and 6.7 (IC50 between 1 μM and 200 nM)) | –
C=CC(=O)N1C2CCC1CC(Nc1cc(-c3ccc(O)cc3)cc3[nH]ncc13)C2 (stereo not drawn) [Compound 9-9] | D (a pKi value between 7 and 8 (Ki between 100 nM and 10 nM)) | A (a pKi value≥10 (Ki≤0.1 nM)) | – | D (a pKi value between 7 and 8 (Ki between 100 nM and 10 nM)) | – | C (a pKi value between 8 and 9 (Ki between 10 nM and 1 nM)) | – | – | – | – | – | B (a value of 2.3 to 3) | A (a pIC50 value≥7.5 (IC50≤32 nM)) | –
C=CC(=O)N1CC(Oc2cc(-c3ccc(O)c(Cl)c3)cc3[nH]ncc23)C1 [Compound 5-4] | E (a pKi value of 7 or below (Ki of 100 nM or above)) | B (a pKi value between 9 and 10 (Ki between 1 nM and 0.1 nM)) | A (a value of 3 or above) | E (a pKi value of 7 or below (Ki of 100 nM or above)) | A (a pIC50 value≥7.5 (IC50≤32 nM)) | E (a pKi value of 7 or below (Ki of 100 nM or above)) | – | – | – | – | – | – | – | –
Cc1cc(O)c(F)cc1-c1cc(O[C@H]2CCN(C(=O)/C=C/CN(C)C)C2)c2cn[nH]c2c1 [Compound 1-29] | – | – | B (a value of 2.3 to 3) | – | – | – | 0.01 to 0.1 | 0.0001 to 0.001 | > 0.1 | 0.0316 to 0.2 | 0.01 to 0.1 | – | – | –
CN(C)C/C=C/C(=O)N1CC(C#N)(COc2cc(-c3ccc(O)cc3)cc3[nH]ncc23)C1 [Compound 3-19] | E (a pKi value of 7 or below (Ki of 100 nM or above)) | B (a pKi value between 9 and 10 (Ki between 1 nM and 0.1 nM)) | A (a value of 3 or above) | E (a pKi value of 7 or below (Ki of 100 nM or above)) | B (a pIC50 value between 6.7 (included) and 7.5 (IC50 between 200 nM and 32 nM)) | E (a pKi value of 7 or below (Ki of 100 nM or above)) | – | – | – | – | – | – | – | –
